Assay results published in US9309242B2, “Substituted pyrido[2,3-b]pyrazines as FGFR kinase inhibitors” (priority 2011, dated 2016).

Key:
FGFR1 (h) = FGFR1 (h) (Homo sapiens, UniProt P11362); test: FGFR1 (enzymatic assay), TR-FRET; format: biochemical; settings: read-out: FGFR 1 pIC50 (converted)
FGFR2 (h) = FGFR2 (h) (Homo sapiens, UniProt P21802); test: FGFR2 (enzymatic assay), TR-FRET; format: biochemical; settings: enzymatic assay; read-out: FGFR 2 pIC50 (converted)
Method in brief: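 Phosphorylation of 500 nM Btn-Flt3 by human FGFR2 (150 ng/ml) is measured at 0.4 μM ATP. The buffer is 50 mM HEPES pH 7.5 containing 6 mM MnCl2, 1 mM DTT, 0.1 mM Na3VO4 and 0.01% Triton-X-100, and compound is tested at 1% DMSO final.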

FGFR3 (h) = FGFR3 (h) (Homo sapiens, UniProt P22607); test: FGFR3 (enzymatic assay), TR-FRET; format: biochemical; settings: read-out: FGFR 3 pIC50 (converted)
FGFR3 (h), sequence (P22607 23-806): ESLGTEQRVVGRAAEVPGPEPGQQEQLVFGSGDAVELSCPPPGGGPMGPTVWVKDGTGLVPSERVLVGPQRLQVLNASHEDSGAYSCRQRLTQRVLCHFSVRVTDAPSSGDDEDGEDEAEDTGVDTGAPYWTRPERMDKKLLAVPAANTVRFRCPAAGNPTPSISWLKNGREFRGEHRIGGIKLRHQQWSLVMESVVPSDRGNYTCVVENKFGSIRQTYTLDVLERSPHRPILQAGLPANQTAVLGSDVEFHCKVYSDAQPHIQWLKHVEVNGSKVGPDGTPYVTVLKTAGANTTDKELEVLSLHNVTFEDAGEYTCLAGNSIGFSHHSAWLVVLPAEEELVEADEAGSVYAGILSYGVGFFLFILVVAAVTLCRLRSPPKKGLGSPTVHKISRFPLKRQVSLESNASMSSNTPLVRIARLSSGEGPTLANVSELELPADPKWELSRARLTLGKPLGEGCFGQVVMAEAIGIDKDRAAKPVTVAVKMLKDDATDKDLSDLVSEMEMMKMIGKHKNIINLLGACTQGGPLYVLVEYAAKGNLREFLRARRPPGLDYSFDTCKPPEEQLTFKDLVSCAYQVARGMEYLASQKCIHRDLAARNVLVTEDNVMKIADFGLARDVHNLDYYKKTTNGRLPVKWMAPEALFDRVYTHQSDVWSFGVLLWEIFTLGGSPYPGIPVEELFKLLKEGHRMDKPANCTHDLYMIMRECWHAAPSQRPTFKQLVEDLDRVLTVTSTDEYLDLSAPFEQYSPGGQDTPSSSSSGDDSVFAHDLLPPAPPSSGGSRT
From the text: Time-Resolved Fluorescence Resonance Energy Transfer (TR-FRET) signal (ex340 nm.

FGFR4 (h) = FGFR4 (h) (Homo sapiens, UniProt P22455); test: FGFR4 (enzymatic assay), TR-FRET; format: biochemical; settings: FGFR 4 pIC50, enzymatic assay
FGFR4 (h), sequence (P22455 22-802): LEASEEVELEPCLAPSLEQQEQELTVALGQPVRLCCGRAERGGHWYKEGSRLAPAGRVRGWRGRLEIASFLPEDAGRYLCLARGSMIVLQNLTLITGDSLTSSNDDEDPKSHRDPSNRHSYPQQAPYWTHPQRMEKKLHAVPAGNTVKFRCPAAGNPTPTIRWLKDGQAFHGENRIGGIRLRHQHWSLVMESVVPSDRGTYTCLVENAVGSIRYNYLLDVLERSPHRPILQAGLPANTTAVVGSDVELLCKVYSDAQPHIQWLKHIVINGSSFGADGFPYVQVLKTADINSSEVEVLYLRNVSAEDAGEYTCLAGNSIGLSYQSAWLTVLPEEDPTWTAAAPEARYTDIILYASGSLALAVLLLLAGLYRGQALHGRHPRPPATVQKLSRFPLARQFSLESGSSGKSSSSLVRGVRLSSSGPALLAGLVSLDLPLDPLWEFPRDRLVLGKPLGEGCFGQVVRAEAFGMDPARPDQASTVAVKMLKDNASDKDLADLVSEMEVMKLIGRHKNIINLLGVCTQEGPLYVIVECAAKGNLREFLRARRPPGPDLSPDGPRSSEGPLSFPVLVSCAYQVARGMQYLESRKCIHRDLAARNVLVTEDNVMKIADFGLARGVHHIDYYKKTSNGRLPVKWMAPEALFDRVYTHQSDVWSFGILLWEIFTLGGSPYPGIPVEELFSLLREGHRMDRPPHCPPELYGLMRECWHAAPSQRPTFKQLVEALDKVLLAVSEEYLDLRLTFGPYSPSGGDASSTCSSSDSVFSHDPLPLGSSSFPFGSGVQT

KDR (h) = KDR (h) (Homo sapiens, UniProt P35968); test: KDR (VEGFR2) (enzymatic assay), TR-FRET; format: biochemical; settings: read-out: VEGFR 2 (KDR) pIC50 (converted)
Method in brief: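 3 μM ATP, 500 nM Btn-Flt3 substrate, 150 ng/ml kinase; HEPES pH 7.5 with MnCl2, DTT, vanadate, Triton; 1% DMSO. 120 min RT. Stop: EDTA + Eu-anti-P-Tyr + SA-XL-665, 60 min RT. Readout TR-FRET ex340/em620, 655 nm, RFU.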

[1] = target: T1, Ba/F3-FGFR1-transfected cells (Homo sapiens, UniProt P11362); test: Ba/F3-FGFR1 (minus IL3) cellular proliferation assay, Alamar Blue; format: cell-based
T1 construct: BAF3-FGFR1 (MIN IL3) pIC50; other: minus IL3
T1 sequence (P11362 whole entry, change not shown): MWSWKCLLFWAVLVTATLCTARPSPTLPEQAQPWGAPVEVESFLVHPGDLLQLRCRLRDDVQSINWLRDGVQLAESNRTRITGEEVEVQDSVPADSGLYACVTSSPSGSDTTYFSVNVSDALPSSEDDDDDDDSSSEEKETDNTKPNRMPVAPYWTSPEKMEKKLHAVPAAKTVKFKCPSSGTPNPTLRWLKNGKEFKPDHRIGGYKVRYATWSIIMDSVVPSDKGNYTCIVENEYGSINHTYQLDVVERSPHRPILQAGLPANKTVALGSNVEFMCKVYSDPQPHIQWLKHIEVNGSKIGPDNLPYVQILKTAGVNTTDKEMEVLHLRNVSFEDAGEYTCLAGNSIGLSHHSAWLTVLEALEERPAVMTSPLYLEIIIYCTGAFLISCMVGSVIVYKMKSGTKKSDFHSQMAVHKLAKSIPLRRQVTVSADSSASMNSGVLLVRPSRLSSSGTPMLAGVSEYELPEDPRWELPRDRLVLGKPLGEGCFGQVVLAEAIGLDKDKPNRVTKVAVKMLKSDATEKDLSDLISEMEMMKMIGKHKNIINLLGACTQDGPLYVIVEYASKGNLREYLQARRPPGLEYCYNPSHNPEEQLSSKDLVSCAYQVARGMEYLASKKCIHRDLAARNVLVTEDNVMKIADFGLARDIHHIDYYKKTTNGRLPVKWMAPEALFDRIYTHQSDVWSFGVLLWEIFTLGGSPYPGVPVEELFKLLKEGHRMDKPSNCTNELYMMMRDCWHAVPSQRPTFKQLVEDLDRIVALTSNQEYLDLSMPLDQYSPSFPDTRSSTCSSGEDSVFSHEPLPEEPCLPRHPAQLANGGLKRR
Method in brief: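 Ba/F3-FGFR1 cells (20000 per well) were exposed to compound for 24 h at 37 °C in RPMI-1640 with 10% FBS. Alamar Blue (resazurin) was then added for 4 h, and fluorescence was read at ex 540/em 590 nm.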

[2] = tested on: Ba/F3-FGFR1-transfected cells; test: Ba/F3-FGFR1 (plus IL3) cellular proliferation assay, counterscreen with 10 ng/ml murine IL3; format: cell-based; settings: plus IL3 (10 ng/ml murine IL3, counterscreen); read-out: BAF3-FGFR1 (PLUS IL3) pIC50 (converted)
Method in brief: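 Proliferation read-out: resazurin-based Alamar Blue fluorescence (540/590 nm) after 4 h, following 24 h compound treatment of 20000 Ba/F3-FGFR1 cells per well in 10% FBS RPMI at 37° C. IL3 counterscreen used the same protocol plus 10 ng/ml murine IL3.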

[3] = target: T2, Ba/F3-FGFR3-transfected cells (Homo sapiens, UniProt P22607); test: Ba/F3-FGFR3 (minus IL3) cellular proliferation assay, Alamar Blue; format: cell-based
T2 construct: BAF3-FGFR3 (MIN IL3) pIC50; other: minus IL3
T2 sequence (P22607 whole entry, change not shown): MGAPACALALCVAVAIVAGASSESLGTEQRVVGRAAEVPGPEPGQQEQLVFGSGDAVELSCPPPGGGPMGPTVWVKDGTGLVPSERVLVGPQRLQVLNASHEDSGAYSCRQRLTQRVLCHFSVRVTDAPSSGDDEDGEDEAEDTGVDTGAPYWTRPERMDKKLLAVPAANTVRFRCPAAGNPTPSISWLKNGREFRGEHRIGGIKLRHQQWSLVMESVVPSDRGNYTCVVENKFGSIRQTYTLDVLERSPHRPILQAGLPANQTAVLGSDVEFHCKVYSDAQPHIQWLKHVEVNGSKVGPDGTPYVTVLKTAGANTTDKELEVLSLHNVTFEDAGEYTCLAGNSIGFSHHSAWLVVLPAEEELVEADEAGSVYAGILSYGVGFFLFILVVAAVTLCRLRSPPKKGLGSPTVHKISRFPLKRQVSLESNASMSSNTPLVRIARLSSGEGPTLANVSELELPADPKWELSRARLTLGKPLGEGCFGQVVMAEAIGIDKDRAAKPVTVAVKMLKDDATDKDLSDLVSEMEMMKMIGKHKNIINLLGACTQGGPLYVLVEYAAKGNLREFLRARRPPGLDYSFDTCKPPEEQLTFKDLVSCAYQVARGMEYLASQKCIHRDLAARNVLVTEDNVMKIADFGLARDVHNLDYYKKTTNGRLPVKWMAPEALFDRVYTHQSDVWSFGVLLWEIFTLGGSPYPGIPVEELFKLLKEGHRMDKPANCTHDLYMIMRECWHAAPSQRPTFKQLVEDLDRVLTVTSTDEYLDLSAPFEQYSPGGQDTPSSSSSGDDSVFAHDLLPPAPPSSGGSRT
Method in brief: (§1)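 Ba/F3 cells transfected with FGFR3, 20000/well in phenol red-free RPMI-1640 with 10% FBS, exposed to compound for 24 h at 37 °C, 5% CO2. Alamar Blue (resazurin) added for 4 h more; fluorescence read at ex 540/em 590 nm. Counterscreen run the same way with 10 ng/ml murine IL3.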

[4] = tested on: Ba/F3-FGFR3-transfected cells; test: Ba/F3-FGFR3 (plus IL3) cellular proliferation assay, counterscreen with 10 ng/ml murine IL3; format: cell-based; settings: plus IL3 (10 ng/ml murine IL3, counterscreen); read-out: BAF3-FGFR3 (PLUS IL3) pIC50 (converted)
Method in brief: as §1

[5] = target: Ba/F3-FGFR4-transfected cells (Homo sapiens, UniProt P22455); test: Ba/F3-FGFR4 cellular proliferation assay, Alamar Blue; format: cell-based
Ba/F3-FGFR4-transfected cells, sequence (P22455 whole entry, change not shown): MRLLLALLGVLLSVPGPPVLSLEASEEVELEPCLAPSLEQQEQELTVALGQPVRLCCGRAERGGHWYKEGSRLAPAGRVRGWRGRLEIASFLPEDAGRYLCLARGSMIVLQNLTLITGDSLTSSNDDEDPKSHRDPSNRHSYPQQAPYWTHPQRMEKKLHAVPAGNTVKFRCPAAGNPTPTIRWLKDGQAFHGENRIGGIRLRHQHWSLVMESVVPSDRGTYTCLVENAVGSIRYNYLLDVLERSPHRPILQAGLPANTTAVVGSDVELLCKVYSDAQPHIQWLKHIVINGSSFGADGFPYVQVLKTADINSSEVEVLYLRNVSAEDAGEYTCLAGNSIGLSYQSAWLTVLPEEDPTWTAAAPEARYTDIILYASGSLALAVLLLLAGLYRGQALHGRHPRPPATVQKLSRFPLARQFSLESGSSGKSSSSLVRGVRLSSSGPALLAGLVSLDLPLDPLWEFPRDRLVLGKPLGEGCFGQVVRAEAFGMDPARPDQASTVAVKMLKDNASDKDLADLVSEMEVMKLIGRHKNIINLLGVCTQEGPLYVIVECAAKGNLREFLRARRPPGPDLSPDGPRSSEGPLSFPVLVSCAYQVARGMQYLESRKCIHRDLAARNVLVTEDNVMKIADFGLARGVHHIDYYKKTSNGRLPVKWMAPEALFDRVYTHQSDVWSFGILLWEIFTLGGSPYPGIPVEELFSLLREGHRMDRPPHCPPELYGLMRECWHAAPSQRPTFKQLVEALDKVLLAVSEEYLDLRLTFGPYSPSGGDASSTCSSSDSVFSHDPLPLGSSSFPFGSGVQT
Method in brief: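 Fluorescence read-out (ex. 540 nm, em. 590 nm) of resazurin-based Alamar Blue after 4 h, following 24 h compound exposure of Ba/F3-FGFR4-transfected cells (20000/well) at 37° C, 5% CO2.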

FGFR1 (h), sequence (P11362 22-822): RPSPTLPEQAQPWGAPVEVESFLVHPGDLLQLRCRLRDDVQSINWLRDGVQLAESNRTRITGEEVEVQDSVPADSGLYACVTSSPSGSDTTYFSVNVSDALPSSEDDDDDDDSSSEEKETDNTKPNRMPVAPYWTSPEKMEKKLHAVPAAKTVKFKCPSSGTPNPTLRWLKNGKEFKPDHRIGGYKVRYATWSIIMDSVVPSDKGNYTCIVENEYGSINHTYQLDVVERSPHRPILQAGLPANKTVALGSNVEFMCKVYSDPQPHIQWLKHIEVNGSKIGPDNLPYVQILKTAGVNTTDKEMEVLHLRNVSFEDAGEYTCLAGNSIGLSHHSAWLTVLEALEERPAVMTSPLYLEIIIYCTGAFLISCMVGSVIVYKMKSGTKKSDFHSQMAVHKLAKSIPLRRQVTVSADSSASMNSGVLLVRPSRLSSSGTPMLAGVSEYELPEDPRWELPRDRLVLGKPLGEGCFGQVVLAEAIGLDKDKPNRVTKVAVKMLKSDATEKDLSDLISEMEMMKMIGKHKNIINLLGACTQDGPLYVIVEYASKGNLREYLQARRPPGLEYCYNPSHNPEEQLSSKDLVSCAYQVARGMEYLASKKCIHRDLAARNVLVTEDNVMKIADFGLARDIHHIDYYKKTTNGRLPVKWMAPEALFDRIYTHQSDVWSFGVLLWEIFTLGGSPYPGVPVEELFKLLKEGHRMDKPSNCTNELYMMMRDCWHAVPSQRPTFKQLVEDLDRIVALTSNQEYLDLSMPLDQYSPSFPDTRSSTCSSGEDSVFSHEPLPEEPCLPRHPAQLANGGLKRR

SMILES	IC50 (FGFR1 (h)) [nM]	IC50 (FGFR2 (h)) [nM]	IC50 (FGFR3 (h)) [nM]	IC50 (FGFR4 (h)) [nM]	IC50 (KDR (h)) [nM]	BAF3-FGFR1 (MIN IL3) pIC50 [1]	IC50 [2] [µM]	BAF3-FGFR3 (MIN IL3) pIC50 [3]	IC50 [4] [µM]	BAF3-FGFR4 pIC50 [5]
COc1cc(OC)c(F)c(N(Cc2ncc[nH]2)c2ccc3ncc(N4CCOCC4)nc3n2)c1 [Compound 291]	0.871	1.55	1.2	3.39	89.1	8.03	> 10	7.73	> 10	7.08
COc1cc(OC)cc(N(Cc2ncc[nH]2)c2ccc3ncc(N4CCOCC4)nc3n2)c1 [Compound 293]	1.62	1.82	1.58	4.79	234	7.59	> 10	7.59	> 10	6.82
COc1cc(OC)c(F)c(N(Cc2ncc[nH]2)c2ccc3ncc(-c4cnn(CCCN)c4)nc3n2)c1 [Compound 295]	0.562	1.74	1.29	2.4	9.33	8.47	> 10	8.17	> 10	7.61
COc1cc(OC)c(F)c(N(Cc2noc(C)n2)c2ccc3ncc(-c4cnn(C)c4)nc3n2)c1 [Compound 297]	0.794	1.78	1.7	3.02	16.2	7.70	> 10	7.69	> 10	6.99
COc1cc(OC)c(F)c(N(CC2CCC(=O)N2)c2ccc3ncc(-c4cnn(C5CNC5)c4)nc3n2)c1 (centres unmarked) [Compound 299]	1.78	4.68	3.55	8.91	120	6.05	> 10	5.94	> 10	5.32
